In US20230391776A1, “AMIDE OXAZOLE COMPOUND” (MEDSHINE DISCOVERY INC., priority 2020, published 2023):

Legend:
[1] = test system: TMD-8 human diffuse large B lymphoma cells; test: TMD-8 cell proliferation (Cell Titer Glo); format: cell-based; conditions: TMD8, 72 hours
Protocol: (§1) The tumor cell lines OCI-LY10 and TMD-8 were used to detect the effect of the compound of the disclosure on inhibiting tumor cell proliferation in vitro.
TMD-8 human diffuse large B lymphoma cells, from Nanjing Cobioer Biotechnology Co., Ltd
(§2) The compound was diluted with DMSO to a final concentration of 10 mM. The compound was freshly prepared and ready for use.
(§3) a) Logarithmic growth period cells were collected, counted, resuspended with complete culture medium, the cell concentration was adjusted to an appropriate concentration (determined according to the results of cell density optimization test), inoculated on 96-well plates, and 100 μL of cell suspension was added to each well. Cells were incubated in an incubator with 37° C., 100% relative humidity and 5% CO2 for 24 hours.
(§4) b) The compound to be tested was diluted to 50 μM with culture medium and then gradient diluted for 8 times. Cells were added with 25 μL/well. The final concentrations of the compound were from […], 3-fold gradient dilution, with a total of 9 concentration points.
(§5) c) Cells were incubated in an incubator with 37° C., 100% relative humidity and 5% CO2 for 72 hours;
(§6) d) 60 μL of CTG test reagent was added to the culture medium.
(§7) e) Shaked fully and reacted in the dark for 10 min. Luminescence was measured on ENVISION and the inhibition rate was calculated.
(§8) Cell growth inhibition rate %=[(RLUv−RLUs)/(RLUv−RLUb)]×100%

[2] = test system: OCI-LY10 human diffuse large B lymphoma cells; test: OCI-LY10 cell proliferation (Cell Titer Glo); format: cell-based; conditions: 72 hours
Protocol: as §1
OCI-LY10 human diffuse large B lymphoma cells, from Nanjing Cobioer Biotechnology Co., Ltd
as §2, §3, §4, §5, §6, §7, §8

[3] = test system: TNF-α production in THP-1 cells; test: TNF-α ELISA in LPS-stimulated THP-1 cells; format: cell-based; conditions: Homo sapiens, TNF-α in supernatant, 150 ng/mL LPS, 18 hours
Protocol: THP-1 human acute single cell leukemia cells were purchased from ATCC (Cat #TIB-202) and cultured at 37° C. in 5% CO2 incubator. The composition of medium was RPMI1640 (Gibco, Cat #22400-105), and the supplementary compositions were 10% FBS (Gibco, Cat #10091148); 1% PenStrep (Gibco, Cat #15140); 0.05 mM β-mercaptoethanol (Sigma, Cat #M6250).
TNF-α Elisa kit was used to detect the content of TNF-α in cell culture supernatant samples. TNF-α was produced by stimulating THP-1 cells with 150 ng/mL LPS (Sigma, Cat #L6529).
THP-1 cells cultured normally at logarithmic growth period were seeded in a 96-well plate (Corning #3599) at a certain concentration (1*10^5/100 μL) and then put into a cell incubator for incubation. After two hours, 16.7 μL of different concentrations of the compound to be tested (8*final concentration) were added and incubated in an incubator. After one hour, 16.7 μL of 1200 ng/mL LPS was added and incubated in an incubator. After 18 hours, the culture supernatant samples were collected by centrifugation, and the content of TNF-α could be detected by TNF-α Elisa kit. Finally, OD signals (OD450-OD570) were read on envision board reader.
The OD450-OD570 signal value was converted into a percentage inhibition rate.
Inhibition rate %=(ZPE−sample)/(ZPE−HPE)*100.
“HPE” referred to the OD450-OD570 signal value of the control well without LPS stimulated cells, and “ZPE” referred to the OD450-OD570 signal value of the control well with LPS stimulated cells. The IC50 value of the compound was calculated by XLFit in the excel add-in.
Y=Bottom+(Top−Bottom)/(1+(IC50/X)^HillSlope). Equation: […]

[4] = target: T1, human BTK (Homo sapiens, UniProt Q06187); test: In vitro BTK kinase activity, 33P isotope-labeled kinase assay; format: biochemical
T1 construct: purchased Reaction Biology Corp
T1 sequence (Q06187 whole entry): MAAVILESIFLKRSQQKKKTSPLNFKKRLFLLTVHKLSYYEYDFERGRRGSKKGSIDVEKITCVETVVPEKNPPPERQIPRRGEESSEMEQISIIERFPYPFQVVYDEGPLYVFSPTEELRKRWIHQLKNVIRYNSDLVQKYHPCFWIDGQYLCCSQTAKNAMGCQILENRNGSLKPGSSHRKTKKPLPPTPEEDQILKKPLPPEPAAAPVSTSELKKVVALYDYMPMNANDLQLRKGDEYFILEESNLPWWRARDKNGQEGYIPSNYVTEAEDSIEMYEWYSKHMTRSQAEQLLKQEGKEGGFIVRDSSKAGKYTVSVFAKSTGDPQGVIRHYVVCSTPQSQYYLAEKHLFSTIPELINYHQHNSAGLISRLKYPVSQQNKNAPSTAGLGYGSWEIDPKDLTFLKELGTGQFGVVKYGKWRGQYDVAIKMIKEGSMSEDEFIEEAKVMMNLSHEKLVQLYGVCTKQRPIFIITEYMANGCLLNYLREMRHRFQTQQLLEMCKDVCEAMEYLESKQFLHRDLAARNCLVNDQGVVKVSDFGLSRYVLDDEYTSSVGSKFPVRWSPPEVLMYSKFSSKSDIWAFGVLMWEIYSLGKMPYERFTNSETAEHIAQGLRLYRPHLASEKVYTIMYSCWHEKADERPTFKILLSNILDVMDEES
Protocol: The IC50 values were determined using ^33P isotope-labeled kinase activity assay (Reaction Biology Corp) to evaluate the inhibitory ability of the tested compounds on human BTK.
(§9) Buffer conditions: 20 mM Hepes (pH 7.5), 10 mM MgCl2, 1 mM EGTA, 0.02% Brij35, 0.02 mg/mL BSA, 0.1 mM Na3VO4, 2 mM DTT, 1% DMSO.
Test procedure: At room temperature, the tested compound was dissolved in DMSO and a 10 mM solution was prepared for use. The substrate was dissolved in a newly prepared buffer solution, and the BTK kinase was added thereto and mixed evenly. The compound dissolved in DMSO was added to the kinase reaction mixture through Echo 550 (Acoustic technology; Nanoliter range). After incubation for 20 minutes at room temperature, ^33P-ATP was added to initiate the reaction. The reaction was carried out at room temperature for 2 hours, and the radioactivity of the reaction solution drop was detected by filtration-binding method with P81 ion exchange filter paper. The kinase activity data were expressed by comparing the kinase activity of the group containing the tested compound with the kinase activity of the blank group (only containing DMSO), and the IC50 value was obtained by curve fitting by Prism4 software (GraphPad), the experimental results were shown in Table 3.

[5] = target: T2, human IRAK4 (Homo sapiens, UniProt Q9NWZ3); test: In vitro IRAK4 kinase activity, 33P isotope-labeled kinase assay; format: biochemical
T2 construct: purchased Reaction Biology Corp
T2 sequence (Q9NWZ3 1-460): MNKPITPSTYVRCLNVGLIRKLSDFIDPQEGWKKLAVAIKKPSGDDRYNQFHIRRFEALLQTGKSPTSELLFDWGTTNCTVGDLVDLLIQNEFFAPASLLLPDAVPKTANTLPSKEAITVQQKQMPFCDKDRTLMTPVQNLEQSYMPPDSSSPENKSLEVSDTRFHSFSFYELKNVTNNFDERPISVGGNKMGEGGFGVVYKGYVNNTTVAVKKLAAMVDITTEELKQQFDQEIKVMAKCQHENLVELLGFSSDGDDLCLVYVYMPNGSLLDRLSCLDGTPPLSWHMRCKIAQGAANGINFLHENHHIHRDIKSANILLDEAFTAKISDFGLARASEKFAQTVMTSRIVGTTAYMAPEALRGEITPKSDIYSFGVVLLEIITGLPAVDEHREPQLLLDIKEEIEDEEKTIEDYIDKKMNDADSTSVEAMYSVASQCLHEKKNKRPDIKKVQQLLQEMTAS
Protocol: The IC50 values were determined using ^33P isotope-labeled kinase activity assay (Reaction Biology Corp) to evaluate the inhibitory ability of the tested compounds on human IRAK4.
as §9
Test procedure: At room temperature, the tested compound was dissolved in DMSO and a 10 mM solution was prepared for use. The substrate was dissolved in a newly prepared buffer solution, and the tested IRAK4 kinase was added thereto and mixed evenly. The DMSO solution dissolved with the tested compound was added to the above mixed evenly reaction solution using acoustic technique (Echo 550). After incubation for 15 minutes, ^33P-ATP was added to initiate the reaction. The reaction was carried out at room temperature for 120 minutes, and the reaction mixture was dropped on P81 ion exchange filter paper (Whatman #3698-915). The filter paper was washed repeatedly with 0.75% phosphoric acid solution, and the radioactivity of phosphorylated substrate residues on the filter paper was determined. The kinase activity data were expressed by comparing the kinase activity of the group containing the tested compound with the kinase activity of the blank group (only containing DMSO), and the IC50 value was obtained by curve fitting by Prism4 software (GraphPad), the experimental results were shown in Table 2.

[6] = test system: OCI-LY3 cell line; test: OCI-LY3 cell proliferation (CTG); format: cell-based; conditions: Homo sapiens, 72 hours
Protocol: The tumor cell line OCI-LY3 was used to detect the effect of the compound of the disclosure on inhibiting tumor cell proliferation in vitro.
The tumor cell line used in this experiment was provided by Nanjing Cobioer Biotechnology Co., Ltd. See Table 6 below for specific information.
The OCI-LY3 cell line was cultured in the corresponding medium at 37° C. and 5% CO2, and the logarithmic growth period cells were used for experimental planking. The cells were collected and centrifuged at 800 rpm for 5 minutes, and the culture medium was re-suspended and spread in a 96-well plate. After being cultured overnight in 37° C., 5% CO2 incubator, drugs with different concentration gradients (10 μL of prepared diluent of test compound was added) were added, and incubated in 37° C., 5% CO2 incubator for 72 hours. The cell culture plate was incubated with CTG reagent at room temperature in the dark for 30 minutes and return to room temperature. CTG solution was added into the biosafety cabinet in the dark 100 μL/well, and was shaken and mixed evenly on plate shaker in the dark for 2 minutes, and incubated at room temperature in the dark for 10 minutes. The luminous value was read and recorded with Perkin Elmer Envision instrument.
The luminous value of the blank control group was subtracted from the luminous value measured at each drug concentration, the ratio of this value to DMSO group was taken as the cell inhibition rate (%). GraphPad software was used, the logarithm of drug concentration (log drug concentration) versus inhibition rate was plotted, and the IC50 value and 95% confidence value were automatically fitted and calculated by log (inhibitor) vs. response-variable slop (four parameters) algorithm of nonlinear regression by software.

[7] = test system: human diffuse large B lymphoma TMD8 cell subcutaneous xenograft; test: TMD8 subcutaneous xenograft tumor model (WX009 study); format: in vivo, SCID mouse; conditions: 20 mg/kg QD PO, 18th day after administration
From the text: The formula for calculating the tumor inhibition rate TGI (%)=[1−(average tumor volume at the end of administration in a treatment group-average tumor volume at the beginning of administration in the treatment group))/(average tumor volume at the end of treatment in solvent control group-average tumor volume at the beginning of treatment in solvent control group)]×100%.

[8] = test system: human diffuse large B lymphoma TMD8 cell subcutaneous xenograft; test: TMD8 subcutaneous xenograft tumor model (WX017 and WX027 study); conditions: 20 mg/kg QD PO, 11th day after administration
Protocol: a) TMD8 cells were cultured in RPMI-1640 medium containing 10% FBS and maintained in a 37° C. saturated humidity incubator with 5% CO2. TMD8 cells in logarithmic period were collected, resuspended in RPMI-1640 basal medium, and Matrigel was added at 1:1, and the cell concentration was adjusted to 4×10^7/mL. Under aseptic conditions, 0.1 mL of cell suspension was inoculated under the skin of the right back of SCID mice, and the inoculation concentration was 4×10^6/0.1 mL/mouse.
When the tumor grew to a certain size, the animals with too large, too small or irregular tumor shape were excluded, and the animals with tumor volume of 108.76-188.11 mm^3 were selected. According to the tumor volume, the animals were divided into 10 groups by random block method, with 6 mice in each group, and the average tumor volume was about 152.11 mm^3. The health status and death of animals were monitored every day, and routine examinations included observing the effects of tumor growth and drug treatment on daily behaviors of animals, such as behavioral activities, food intake and water intake, weight change (weight was measured twice a week), tumor size (tumor volume was measured twice a week), appearance signs or other abnormal conditions.
The formula for calculating tumor volume (TV) was: 1/2×a×b^2, where a and b were the measured length and width of the tumor respectively. The formula for calculating the tumor inhibition rate TGI (%)=[1−(average tumor volume at the end of administration in a treatment group-average tumor volume at the beginning of administration in the treatment group))/(average tumor volume at the end of treatment in solvent control group-average tumor volume at the beginning of treatment in solvent control group)]×100%.
In this study, the experimental data were all expressed by Mean±SEM. Statistical analysis was based on the data of RTV at the end of the experiment and analyzed by IBM SPSS Statistics software. T test was used to analyze the comparison between two groups, and one-way ANOVA was used to analyze the comparison between three or more groups. If the variance was even (there was no significant difference in F value), Tukey's method was used to analyze it, and if the variance was uneven (there was significant difference in F value), Games-Howell method was used to test it. p<0.05 was deemed to a significant difference.

Row | SMILES | IC50 [1] [nM] | IC50 [2] [nM] | IC50 [3] [nM] | IC50 [4] [nM] | IC50 [5] [nM] | IC50 [6] [nM] | TGI [7] [%] | TGI ([7]; listed as Ibrahim) [%] | TGI [8] [%]
1 | CS(=O)(=O)CCc1cn2cc(NC(=O)c3coc(-c4ccnc(N)c4)n3)c(-c3ccccc3)cc2n1 [WX013] | 20 | 8 | 6 | 2.9 | 1.8 | 34 | – | – | –
2 | C=CC(=O)N1CCC[C@@H](n2nc(-c3ccc(Oc4ccccc4)cc3)c3c(N)ncnc32)C1 [ibrutinib, reference compound] | – | – | – | – | – | – | 12.95 | 13 | 39
